Results as given in US5374765A, “Method for extracting an amino acid ester from a hydrous solution of a mineral acid salt thereof” (priority 1990, dated 1994).

Experiment: Extraction of amino acid ester from aqueous mineral acid salt solution into 1,2-dichloroethane at constant pH (Table 1)
Procedure: 0.1 mole of a mineral acid salt of an amino acid ester, shown in Table 1 was dissolved or suspended in 30 g of water. Thereto was added 60 g of 1,2-dichloroethane. While the mixture was kept at 20°-25° C. and stirred, a 20% water solution of sodium hydroxide was dropwise added thereto in 0.5 hour, and then stirring and extraction were carried out for 0.5 hour while the pH of the aqueous layer was kept at a constant level in the range of 6.5-8.5. The organic layer was separated from the aqueous layer. Then, there were measured percent extraction of fed amino acid ester in organic layer, percent remaining of said ester in aqueous layer, and percent hydrolysis of said ester in aqueous layer (the hydrolyzed ester remains in the aqueous layer as an amino acid).

[1] = pH 6.5, 20-25 °C, 1,2-dichloroethane
[2] = pH 7.5, 20-25 °C, 1,2-dichloroethane
[3] = pH 8.5, 20-25 °C, 1,2-dichloroethane

Compound	Ester in aqueous layer, percent hydrolysis [1] [%]	Ester in aqueous layer, percent remaining [1] [%]	Percent extraction of ester in organic layer [1] [%]	Ester in aqueous layer, percent hydrolysis [2] [%]	Ester in aqueous layer, percent remaining [2] [%]	Percent extraction of ester in organic layer [2] [%]	Ester in aqueous layer, percent hydrolysis [3] [%]	Ester in aqueous layer, percent remaining [3] [%]	Percent extraction of ester in organic layer [3] [%]	Ester in aqueous layer, percent remaining (pH 6.5) [%]	Ester in aqueous layer, percent remaining (pH 7.5) [%]	Ester in aqueous layer, percent remaining (pH 8.5) [%]	Ester in aqueous layer, percent hydrolysis (water/1,2-dichloroethane, pH 6.5) [%]	Ester in aqueous layer, percent hydrolysis (water/1,2-dichloroethane, pH 7.5) [%]	Ester in aqueous layer, percent hydrolysis (water/1,2-dichloroethane, pH 8.5) [%]
CCOC(=O)[C@@H](N)Cc1ccccc1.Cl [Ethyl L-phenylalaninate hydrochloride]	0	8	92	0	2	98	3	1	96	–	–	–	–	–	–
Methyl L-aspartate hydrochloride	–	–	88	–	–	96	–	–	96	12	3	1	0	1	3
COC(=O)[C@@H](N)CO.Cl [Methyl L-serinate hydrochloride]	0	14	86	0	5	95	4	2	94	–	–	–	–	–	–
COC(=O)CCCN.Cl [Methyl γ-aminobutyrate hydrochloride]	0	11	89	0	4	96	3	2	95	–	–	–	–	–	–
Cl.N[C@@H](Cc1ccccc1)C(=O)Oc1ccccc1 [Phenyl L-phenylalaninate hydrochloride]	0	6	94	2	1	97	7	1	92	–	–	–	–	–	–
COC(=O)[C@@H](N)CCCCN.Cl [Methyl L-lysinate hydrochloride]	0	18	82	0	9	91	3	3	94	–	–	–	–	–	–
CCOC(=O)c1ccccc1N.Cl [Ethyl o-aminobenzoate hydrochloride]	0	6	94	1	2	97	3	1	96	–	–	–	–	–	–
Cl.N[C@@H](Cc1ccccc1)C(=O)OCc1ccccc1 [Benzyl L-phenylalaninate hydrochloride]	0	6	94	0	1	99	–	1	97	–	–	–	–	–	–
